# Assay results reported in patent US5670538A, “Use of prodelphinidins for obtaining medicaments intended for the treatment of arthrosis” (Laboratoires Dolisos, priority 1992, dated 1997).
# Tested on: ferricytochrome C
# Assay: Control experiments: direct reduction of ferricytochrome C by the product itself
# Assay type: biochemical
# Details: effect not quantifiable
# Description: This effect not being quantifiable, no conclusion can consequently be drawn on a possible inhibiting effect of these products on the production of the superoxide anion by the activated PMNs.
smiles,measurement,value
"O=c1ccc2cc(O[C@@H]3O[C@H](CO)[C@@H](O)[C@H](O)[C@H]3O)c(O)cc2o1 [esculoside, reference compound]",Direct reduction of ferricytochrome C,powerful reducers of ferricytochrome C
